Reference: article PMC3502418 (2012)

Legend:
[1] = tested on: DNA4-G (DNA, mismatch bulge abasic, abasic site (dSpacer, tetrahydrofuran residue) at X, opposite G, flanked by C; position in Figure 1B) ATGGTGCNCGCAGCG/CGCTGCGGGCACCAT; test: UV melting at 260 nm; details: 0.1 M phosphate, 1 mM EDTA, pH 8.3 or 7.0 (unclear); 5 µM SG, 5 µM DNA
[2] = tested on: DNA1-T (DNA, mismatch bulge abasic, abasic site (dSpacer, tetrahydrofuran residue) at X, opposite T, flanked by T; position in Figure 1B) ATGGTGTNTGCAGCG/CGCTGCATACACCAT; test: UV melting at 260 nm; details: 0.1 M phosphate, 1 mM EDTA, pH 8.3 or 7.0 (unclear); 5 µM SG, 5 µM DNA
[3] = tested on: DNA2-A (DNA, mismatch bulge abasic, abasic site (dSpacer, tetrahydrofuran residue) at X, opposite A, flanked by A; position in Figure 1B) ATGGTGANAGCAGCG/CGCTGCTATCACCAT; test: UV melting at 260 nm; details: 0.1 M phosphate, 1 mM EDTA, pH 8.3 or 7.0 (unclear); 5 µM SG, 5 µM DNA
[4] = tested on: DNA1-A (DNA, mismatch bulge abasic, abasic site (dSpacer, tetrahydrofuran residue) at X, opposite A, flanked by T; position in Figure 1B) ATGGTGTNTGCAGCG/CGCTGCAAACACCAT; test: UV melting at 260 nm; details: 0.1 M phosphate, 1 mM EDTA, pH 8.3 or 7.0 (unclear); 5 µM SG, 5 µM DNA
[5] = tested on: DNA1-C (DNA, mismatch bulge abasic, abasic site (dSpacer, tetrahydrofuran residue) at X, opposite C, flanked by T; position in Figure 1B) ATGGTGTNTGCAGCG/CGCTGCACACACCAT; test: fluorescence titration (586 nm), Scatchard; details: 0.1 M phosphate, 1 mM EDTA; pH 8.3 presumed; 1 µM SG; strongest site only
[6] = tested on: DNA3-G (DNA, mismatch bulge abasic, abasic site (dSpacer, tetrahydrofuran residue) at X, opposite G, flanked by G; position in Figure 1B) ATGGTGGNGGCAGCG/CGCTGCCGCCACCAT; test: UV melting at 260 nm; details: 0.1 M phosphate, 1 mM EDTA, pH 8.3 or 7.0 (unclear); 5 µM SG, 5 µM DNA
[7] = tested on: DNA2-C (DNA, mismatch bulge abasic, abasic site (dSpacer, tetrahydrofuran residue) at X, opposite C, flanked by A; position in Figure 1B) ATGGTGANAGCAGCG/CGCTGCTCTCACCAT; test: UV melting at 260 nm; details: 0.1 M phosphate, 1 mM EDTA, pH 8.3 or 7.0 (unclear); 5 µM SG, 5 µM DNA
[8] = tested on: DNA4-C (DNA, mismatch bulge abasic, abasic site (dSpacer, tetrahydrofuran residue) at X, opposite C, flanked by C; position in Figure 1B) ATGGTGCNCGCAGCG/CGCTGCGCGCACCAT; test: UV melting at 260 nm; details: 0.1 M phosphate, 1 mM EDTA, pH 8.3 or 7.0 (unclear); 5 µM SG, 5 µM DNA
[9] = tested on: DNA3-T (DNA, mismatch bulge abasic, abasic site (dSpacer, tetrahydrofuran residue) at X, opposite T, flanked by G; position in Figure 1B) ATGGTGGNGGCAGCG/CGCTGCCTCCACCAT; test: UV melting at 260 nm; details: 0.1 M phosphate, 1 mM EDTA, pH 8.3 or 7.0 (unclear); 5 µM SG, 5 µM DNA
[10] = tested on: DNA1-G (DNA, mismatch bulge abasic, abasic site (dSpacer, tetrahydrofuran residue) at X, opposite G, flanked by T; position in Figure 1B) ATGGTGTNTGCAGCG/CGCTGCAGACACCAT; test: UV melting at 260 nm; details: 0.1 M phosphate, 1 mM EDTA, pH 8.3 or 7.0 (unclear); 5 µM SG, 5 µM DNA
[11] = tested on: mismatched DNA (DNA1, X = T, Y = C) (DNA, mismatch bulge abasic) ATGGTGTTTGCAGCG/CGCTGCACACACCAT; test: fluorescence enhancement at 586 nm; details: 0.1 M phosphate, pH 8.3 presumed; 5 µM SG; up to 5 µM DNA; weaker than DNA1-C

ΔT [1]: 2.4 °C | ΔT [2]: 3.8 °C | ΔT [3]: 3.0 °C | ΔT [4]: 1.9 °C | binding constant [5]: 1.7±0.15×10^7 M^−1 | ΔT [6]: 2.4 °C | ΔT [7]: 5.4 °C | ΔT [8]: 5.2 °C | ΔT [9]: 5.7 °C | ΔT [10]: 1.9 °C | binding [11]: yes
SMILES: C[n+]1cc2c3c(ccc2c2ccc4cc5c(cc4c21)OCO5)OCO3
